Assays:
Assay in all cases: Fluo-4 AM calcium flux in HEK293T cells
[1] = system: T1, CcIav/CcNan heterotetramer; assay type: cell-based, Cacopsylla chinensis; conditions: agonist; 2:2 CcIav/CcNan
T1 construct: gene iav; full-length ORFs co-expressed in HEK293T cells from pcDNA3.1-mCherry-P2A; 2:2 heterotetramer

[2] = target: T2, BdIav/BdNan heterotetramer (Bactrocera dorsalis, UniProt A0A8N4L2W2+A0ABM3JT49); assay type: cell-based
T2 construct: gene LOC105228865; ORFs co-expressed in HEK293T cells; 2:2 heterotetramer
T2 sequence (A0ABM3JT49 1-1159): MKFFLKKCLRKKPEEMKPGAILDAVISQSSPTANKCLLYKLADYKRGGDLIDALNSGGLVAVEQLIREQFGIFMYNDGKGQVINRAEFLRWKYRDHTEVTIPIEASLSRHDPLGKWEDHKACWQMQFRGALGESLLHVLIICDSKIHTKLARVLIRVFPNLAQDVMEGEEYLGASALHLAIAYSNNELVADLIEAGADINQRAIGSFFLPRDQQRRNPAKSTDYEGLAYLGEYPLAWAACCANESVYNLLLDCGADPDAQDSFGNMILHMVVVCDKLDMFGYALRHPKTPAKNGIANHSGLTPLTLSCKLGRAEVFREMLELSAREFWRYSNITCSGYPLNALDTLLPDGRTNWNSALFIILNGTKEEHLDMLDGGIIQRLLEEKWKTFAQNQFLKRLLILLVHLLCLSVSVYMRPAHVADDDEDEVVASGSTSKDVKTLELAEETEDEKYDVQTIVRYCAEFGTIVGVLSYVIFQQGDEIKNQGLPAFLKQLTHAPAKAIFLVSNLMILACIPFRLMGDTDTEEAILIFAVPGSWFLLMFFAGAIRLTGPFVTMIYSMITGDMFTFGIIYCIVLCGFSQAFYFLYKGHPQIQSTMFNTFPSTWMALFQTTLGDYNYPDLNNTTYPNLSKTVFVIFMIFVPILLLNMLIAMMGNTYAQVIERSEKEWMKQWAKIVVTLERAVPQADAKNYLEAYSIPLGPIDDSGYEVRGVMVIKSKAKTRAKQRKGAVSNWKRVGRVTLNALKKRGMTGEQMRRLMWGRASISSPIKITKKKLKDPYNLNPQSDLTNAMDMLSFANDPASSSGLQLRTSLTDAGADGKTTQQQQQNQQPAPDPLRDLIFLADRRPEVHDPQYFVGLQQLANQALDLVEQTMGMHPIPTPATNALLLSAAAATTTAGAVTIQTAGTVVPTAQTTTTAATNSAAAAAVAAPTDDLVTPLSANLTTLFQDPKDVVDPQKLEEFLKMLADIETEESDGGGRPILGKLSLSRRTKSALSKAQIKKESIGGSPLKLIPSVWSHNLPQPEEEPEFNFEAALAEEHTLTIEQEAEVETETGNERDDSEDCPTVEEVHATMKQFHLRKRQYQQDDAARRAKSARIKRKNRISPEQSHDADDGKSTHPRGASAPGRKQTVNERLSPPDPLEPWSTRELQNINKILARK
T2 sequence (A0A8N4L2W2 1-846): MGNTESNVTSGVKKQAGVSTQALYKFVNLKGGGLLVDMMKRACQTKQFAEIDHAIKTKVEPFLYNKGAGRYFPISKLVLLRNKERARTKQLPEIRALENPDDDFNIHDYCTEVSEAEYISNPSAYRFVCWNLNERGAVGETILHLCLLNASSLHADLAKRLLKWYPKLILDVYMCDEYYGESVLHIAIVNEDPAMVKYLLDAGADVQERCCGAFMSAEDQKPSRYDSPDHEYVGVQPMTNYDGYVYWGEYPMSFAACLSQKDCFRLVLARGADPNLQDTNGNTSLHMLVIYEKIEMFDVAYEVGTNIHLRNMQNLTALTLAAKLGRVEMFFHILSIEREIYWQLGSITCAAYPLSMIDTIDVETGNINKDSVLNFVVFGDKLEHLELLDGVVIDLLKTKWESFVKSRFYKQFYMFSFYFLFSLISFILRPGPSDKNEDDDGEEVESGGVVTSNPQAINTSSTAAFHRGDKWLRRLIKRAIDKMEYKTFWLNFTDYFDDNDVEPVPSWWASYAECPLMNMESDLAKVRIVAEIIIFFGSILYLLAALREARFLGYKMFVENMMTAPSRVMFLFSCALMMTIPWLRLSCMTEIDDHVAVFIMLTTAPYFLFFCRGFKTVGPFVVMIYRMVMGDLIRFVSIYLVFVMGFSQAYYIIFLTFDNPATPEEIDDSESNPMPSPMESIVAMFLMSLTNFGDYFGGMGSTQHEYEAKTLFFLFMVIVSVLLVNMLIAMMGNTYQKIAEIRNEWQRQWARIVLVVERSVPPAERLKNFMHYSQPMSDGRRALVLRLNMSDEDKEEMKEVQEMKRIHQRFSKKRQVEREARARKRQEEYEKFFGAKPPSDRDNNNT

[3] = system: T3, DcIav/DcNan heterotetramer; assay type: cell-based, Diaphorina citri; conditions: agonist; 2:2 molar ratio Iav/Nan
T3 construct: gene iav; ORFs co-expressed in HEK293T cells; 2:2 heterotetramer

[4] = system: T4, HaIav/HaNan heterotetramer; assay type: cell-based, Harmonia axyridis; conditions: agonist; 2:2 molar ratio Iav/Nan
T4 construct: gene iav; ORFs co-expressed in HEK293T cells; 2:2 heterotetramer

## COc1cc(CNC(=O)CCCC/C=C/C(C)C)ccc1O [capsaicin]
[1]
  EC50: 0.0224 µM
[2]
  EC50: 24.5 µM
[3]
  EC50: 57.8 µM
[4]
  EC50: 24.1 µM

From PMC12677633, “Thermosensory TRPV Heterotetramers Drive Seasonal Polyphenism: Molecular Basis of CcIav/CcNan‐PKCα‐AKH/AKHR Signaling in Pear Psyllid Morph Transition” (Advanced Science, 2025)
